The values that follow come from patent publication US12624039B2, “BTK inhibitors” (DIZAL (JIANGSU) PHARMACEUTICAL CO., LTD., priority 2020, dated 2026).

Data set [1] is described as follows: In vitro rat hepatocytes clearance assay. The class given is in vitro ADME. On the procedure:
(§1) In Vitro Rat/Human Hepatocytes Clearance Assay
(§2) Rat hepatocytes in male gender and human hepatocytes in mixed gender were obtained from commercial vendors (e.g., BioreclamationIVT) and stored at −150° C. prior to use. 10 mM stock solutions of tested compounds were prepared in DMSO. Thawing medium and supplement incubation medium (serum-free) were placed in a 37° C. water bath for at least 15 minutes prior to use. Stock solutions were diluted to 100 μM by combining 198 μL acetonitrile and 2 μL of 10 mM stock solution.
(§3) Vials of cryopreserved hepatocytes were removed from storage, ensured that vials remain at cryogenic temperatures. The vials were thawed in a 37° C. water bath with gently shaking. Vials were kept in a water bath until all ice crystals had dissolved and were no longer visible. Vials were sprayed with 70% ethanol before being transferred to a biosafety cabinet. And then the contents were poured into the 50 mL thawing medium conical tube. Vials were centrifuged at 100 g for 10 minutes at room temperature. Thawing medium was aspirated and hepatocytes were resuspended with serum-free incubation medium to yield ^˜1.5×10^6 cells/mL.
(§4) Cell viability and density were counted using a Trypan Blue exclusion, and then cells were diluted with serum-free incubation medium to a working cell density of 1×10^6 viable cells/ml. A portion of the hepatocytes at 1×10^6 viable cells/mL was boiled for 10 min prior to adding to the plate as negative control to eliminate the enzymatic activity so that little or no substrate turnover should be observed. The inactivated hepatocytes were used to prepare negative samples, which were used to exclude the misleading factor that resulted from instability of chemical itself.
(§5) Aliquots of 247.5 μL hepatocytes were dispensed into each well of a 96-well non-coated plate. The plate was placed in the incubator on an orbital shaker for approximately 10 minutes. Aliquots of 2.5 μL of the 100 μM test compounds were added into respective wells of the non-coated 96-well plate to start the reaction. This assay was performed in duplicate. The plate was incubated in the incubator on an orbital shaker for the designed time points. 20 μL of contents were transferred and mixed with 6 volumes (120 μL) of cold acetonitrile with internal standard to terminate the reaction at time points of 5, 15, 30, 45, 60, 80 and 100 minutes. Samples were centrifuges for 20 minutes at 4000 g and aliquots of 100 μl of the supernatants were used for LC-MS/MS analysis for measurement of test compounds.
(§6) In vitro hepatocyte clearance was estimated based on determination of elimination half-life (T1/2) of compounds disappearance from their initial concentrations. Peak area ratios of each compound (test or control) to IS was calculated. Ln (% Control) versus Incubation Time (min) curve was plotted, and the slope of a linear fitting line was calculated. Drug elimination rate constant k (min-1), T1/2 (min), and in vitro intrinsic clearance CLint (μL/min/E6) was calculated according to the following equations: k=−slope T1/2=0.693/k CLint=k/Chep • Where Chep (cells×μL-1) is the cell concentration in the incubation system. Procedure for Log D Determination

The next data set deals with T1, Recombinant BTK(C481S) (Homo sapiens, UniProt Q06187, C481S).
T1 construct: purchased SignalChem
T1 sequence (Q06187 whole entry C481S): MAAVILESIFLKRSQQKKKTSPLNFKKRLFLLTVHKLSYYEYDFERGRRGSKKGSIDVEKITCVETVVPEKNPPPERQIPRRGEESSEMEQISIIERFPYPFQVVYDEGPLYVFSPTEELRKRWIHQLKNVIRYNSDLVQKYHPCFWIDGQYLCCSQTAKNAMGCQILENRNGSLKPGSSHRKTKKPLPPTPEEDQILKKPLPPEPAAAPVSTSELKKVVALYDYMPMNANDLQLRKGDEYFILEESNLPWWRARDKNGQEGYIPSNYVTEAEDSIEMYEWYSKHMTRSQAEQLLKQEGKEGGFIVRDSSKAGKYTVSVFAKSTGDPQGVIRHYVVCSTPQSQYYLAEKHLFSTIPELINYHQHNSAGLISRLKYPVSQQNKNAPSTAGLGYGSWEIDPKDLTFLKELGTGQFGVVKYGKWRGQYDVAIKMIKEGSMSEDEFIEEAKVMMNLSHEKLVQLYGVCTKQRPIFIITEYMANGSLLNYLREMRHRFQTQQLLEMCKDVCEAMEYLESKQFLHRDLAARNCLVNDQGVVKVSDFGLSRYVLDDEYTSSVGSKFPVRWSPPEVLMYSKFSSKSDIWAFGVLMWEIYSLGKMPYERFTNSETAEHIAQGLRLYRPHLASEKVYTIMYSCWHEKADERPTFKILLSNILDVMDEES
Nature of the data set: BTK C481S HTRF kinase assay. The class given is biochemical. The following applies: 30 min pre-incubation, 120 min reaction. On the procedure: [The procedure below names another variant; the source lists this variant under the same test.] (§7) Recombinant BTK wild type (BTK WT) was purchased from Thermo fisher.
(§8) In brief, recombinant kinases were pre-incubated in the presence or absence of compound at room temperature for 30 minutes. The reaction was initiated by the addition of the ATP and substrate peptide which could be phosphorylated by kinases in the reaction. After 120 minutes incubation, the reaction was stopped by the addition of the detection reagent mix containing EDTA.
(TR-FRET usually uses a lanthanide donor and a delayed reading to cut background.)

Data set [2] can be described thus: In vitro human hepatocytes clearance assay. The class given is in vitro ADME. On the procedure: as §1, §2, §3, §4, §5, §6
Data set [3] can be described thus: Protein binding in human plasma by equilibrium dialysis. Type of data set: in vitro ADME. Particulars: 18 hours at 37° C.; for hPPB (fu %): human plasma, 5 μM, fraction unbound; for fraction unbound at 18 h, 5 μM: human, plasma, pH 7.4, human plasma, read-out: hPPB (fu %). The protocol:
(§9) [formula] DF means the dilution factor. Procedure for Protein Binding Measurements in Human Plasma by Using Equilibrium Dialysis
Add 597 μL of blank plasma into each vial of a new plastic plate or separate plastic tube by addition of 3 μL of the working solution of each cassette, vortex at 1,000 rpm for 5 minutes. The final percent volume of organic solvent is 0.5% and the final concentration for test compound is 5 μM. Immediately transfer 50 μL of the spiked plasma suspension to a 96-well plate to act as T=0 control sample. The samples are treated the same as the samples after incubation. Place all remaining spiked plasma in the incubator for the duration of the study.
Place inserts open end up into the wells of the base plate. Add 500 μL of phosphate buffer (pH 7.4) to the buffer chamber, which is indicated by the white ring. Add 300 μL of spiked plasma sample into the sample chamber, which is indicated by the red ring. Cover the unit with gas permeable lid and incubate for 18 hours at 37° C. at 300 rpm with 5% CO2 on an orbital shaker in the CO2 incubator. At the end of incubation, remove lid and pipette 50 μL of post-dialysis samples from both buffer and plasma chambers into separated 96-well plate for analysis, respectively.
At the same time, the remaining spiked plasma sample in the plastic plate or separate plastic tube is incubated for 18 hours at 37° C. with 5% CO2 in the CO2 incubator. At T=18 hours, transfer 50 μL of the original spiked plasma suspension to the 96-well plate for analysis.
Add 50 μL of Human plasma to the buffer samples, and an equal volume of PBS to the collected plasma samples. Vortex the plate at 1,000 rpm for 2 minutes and add 400 μL of acetonitrile containing an appropriate internal standard (IS) to precipitate protein and release compound. Vortex at 1,000 rpm for 10 minutes. Centrifuge for 30 minutes at 4,000 rpm. Transfer 250 μl of the supernatant to new 96-well plates and centrifuge again (4,000 rpm, 30 minutes). Then transfer 100 μL of the supernatant to new 96-well plates for analysis. Add 100 μL of distilled water to each sample and vortex for 5 minutes at 1,000 rpm for analysis by LC-MS/MS. All compounds are tested in singlicate at 5 μM in human plasma.
All calculations are carried out using Microsoft Excel.
Calculate the percentage of unbound, percentage of bound and recovery of test compound as follows: […]
On the technique in general: In equilibrium dialysis free small molecules cross a membrane that holds back macromolecules.

The nature of the next data set: DMSO solubility. The class given is physicochemical.
Data set [4] is described as follows: Log D determination (octanol/phosphate buffer). The following applies: 25° C. Type of data set: physicochemical. On the procedure: 10 μL of working solution of each cassette is placed in order into respective 96-well rack position (Log D plate). Add 500 μL of saturated octanol into each vial of the above cap-less Log D plate followed by the addition of 500 μL of saturated phosphate buffer. Seal with a moulded PTFE/SIL 96-Well Plate Cover.
The samples are centrifuged at 4,000 rpm at 25° C. for 30 minutes to separate the phases. Pipette and syringe are used to pipette about 100 μL from the octanol and buffer phases to a new 96-well plate, respectively.
5 μL of octanol sample is transferred to a new 96-well plate, followed by addition of 495 μL of a mixture of H2O and acetonitrile containing internal standard (1:1) as 100 fold octanol samples. Vortex for 5 minutes at 1,000 rpm.
50 μL of 100 fold samples are transferred to new 96-well plate, followed by addition of 450 μL of a mixture of H2O and acetonitrile containing internal standard (1:1) as 1,000 fold octanol samples. Vortex for 5 minutes at 1,000 rpm.
The 1,000 folds octanol samples are serially diluted into 10,000, 100,000 and 1,000,000 folds with a mixture of H2O and acetonitrile containing internal standard (1:1).
50 μL of buffer samples are transferred to new 96-well plate, followed by addition of 450 μL of a mixture of H2O and acetonitrile containing internal standard (1:1) as 10 folds buffer samples. Vortex for 5 minutes at 1,000 rpm.
The 10 folds buffer samples are serially diluted into 100, 1,000 and 10,000 folds with a mixture of H2O and acetonitrile containing internal standard (1:1). The samples are evaluated by LC/MS/MS analysis. All compounds are tested in singlicate.
All calculations are carried out using Microsoft Excel. The concentrations of test compound in octanol/buffer solution are evaluated by LC/MS/MS. Calculate the Log D value of the test compound as follows:
as §9

Data set [5] has as its target T2, Recombinant BTK wild type (BTK WT) (Homo sapiens, UniProt Q06187).
T2 construct: purchased Thermo fisher
The data set can be described thus: BTK WT HTRF kinase assay. The following applies: 30 min pre-incubation, 120 min reaction. Type of data set: biochemical. The protocol:
as §7, §8

The next data set in a line: Hu Mic Clint. Particulars: for microsomal CLint: human, microsomes. Type of data set: in vitro ADME, human.
The conditions of data set [6]: phase I trial for multiple sclerosis (MS); cited from earlier work.

As usually defined, the IC50 is the point on the concentration scale where inhibition reaches its midpoint. Broadly, the solubility is how much of the substance goes into solution per volume. For orientation: logD means the decadic logarithm of the distribution of all forms, ionised or not, between an organic phase and buffer at a given pH. For orientation: microsomal CLint means a measure of how fast metabolising enzymes remove a compound, apart from limits set by blood flow. High values mean faster metabolism, low ones greater metabolic stability.

Molecules are shown by their SMILES. ≈ marks a conversion by molar mass, not a printed value. Read-outs that look alike come from different tables or passages of the source.

T2 sequence (Q06187 whole entry): as the sequence (Q06187 whole entry C481S) above, with S481C counted along it

`Nc1ncnn2c(C3CCC(CO)OC3)nc(-c3ccc(Oc4ccccc4)c(F)c3F)c12` (centres unmarked) [Compound 13, (5-(4-amino-5-(2,3-difluoro-4-phenoxyphenyl)imidazo[5,1-f][1,2,4]triazin-7-yl)tetrahydro-2H-pyran-2-yl)methanol]: in data set [1], the “Rat Hep Clint” value amounted to 21.4 μL/min/10∧6 cells. For the same compound, the concentration for half-maximal inhibition (IC50) came out at 3.81 nM at Recombinant BTK(C481S) and 3.29 nM in data set [5]. Moreover, in [2], the “Human Hep Clint” value stood at 5.9 μL/min/10∧6 cells. In data set [3], the “hPPB (fu %)” value stood at 8.4%. The compound further displayed a solubility in “DMSO solubility” of 113 µM (≈ 51.2 µg/mL). Besides, the logD in data set [4] stood at 3.21. Moreover, in “Hu Mic Clint”, the “Hu Mic Clint” value was <3 µL/min/mg.

`Nc1ncnn2c(C3CCC(CO)OC3)nc(-c3ccc(Oc4cccc(F)c4F)cc3)c12` (centres unmarked) [Compound 15, (5-(4-amino-5-(4-(2,3-difluorophenoxy)phenyl)imidazo[5,1-f][1,2,4]triazin-7-yl)tetrahydro-2H-pyran-2-yl)methanol]: the “Rat Hep Clint” value in data set [1] came out at 7.9 μL/min/10∧6 cells. Further, the half-maximal inhibitory concentration (IC50) is 6.11 nM on Recombinant BTK(C481S) and 6.72 nM in data set [5]. For the same compound, the “Human Hep Clint” value in data set [2] was 2.1 μL/min/10∧6 cells. The “hPPB (fu %)” value in data set [3] is recorded as 6.4%. The solubility in “DMSO solubility” is 84.0 µM (≈ 38.1 µg/mL). This compound also came in with a logD in [4] of 2.98. For the same compound, in the data set “Hu Mic Clint”, the “Hu Mic Clint” value is <3 µL/min/mg.

As to `C=CC(=O)N1CCC[C@@H](n2c(=O)n(-c3ccc(Oc4ccccc4)cc3)c3c(N)nccc32)C1` [PRN2246], the tolerability entry in [6] is on record as “well tolerated”.

For `Nc1ncnn2c1c(-c1ccc(Oc3ccccc3)cc1F)nc2[C@H]1CC[C@H](CO)CC1` [reference compound], the “Rat Hep Clint” value in data set [1] stood at 254.9 μL/min/10∧6 cells. Also, the “Human Hep Clint” value in data set [2] is 123.6 μL/min/10∧6 cells. Further, the fraction unbound at 18 h, 5 μM in data set [3] is 0.0257. In addition, the solubility in the data set “DMSO solubility” (kinetic from dmso stock) is < 1.6 µM. Also, in data set [4], the log distribution coefficient (logD) at 2 h is 3.98. Further, in the data set “Hu Mic Clint”, the microsomal CLint is 19.3 µL/min/mg.

On to `Nc1nccn2c1c(-c1ccc(Oc3ccccc3)cc1)nc2[C@H]1CC[C@H](CO)CC1` [reference compound], for which the “Rat Hep Clint” value in [1] is 119.3 μL/min/10∧6 cells. Also, the “Human Hep Clint” value in data set [2] came to 92.9 μL/min/10∧6 cells. In data set [3], the fraction unbound at 18 h, 5 μM turned out to be 0.0289. Besides, the solubility in the data set “DMSO solubility” (kinetic from dmso stock) is < 1.6 µM. For the same compound, the logD at 2 h in [4] was found to be 4.16. In the data set “Hu Mic Clint”, the microsomal CLint was 141 µL/min/mg.
